In PMC7770183, “Enhanced Bioavailability of Boswellic Acid by Piper longum: A Computational and Pharmacokinetic Study” (Frontiers in Pharmacology, 2020):
Where two headings read alike, the source gives them in different places.

Test: Pharmacokinetic study of β-boswellic acid in rabbits with and without Piper longum extract (serum, HPLC-UV)
Assay type: in vivo
Conditions: for AUC(0-t) / AUC(0-inf) / Cmax / Tmax / Vd/F / k el: male, rabbit, serum, po; for AUC(0-t): oral capsule; for Vd/F: read-out: Apparent volume of distribution (Vd/F); for k el: read-out: Ke (converted)
[1] = 20 mg, oral, Control: 20 mg of BA alone
[2] = Test I: 20 mg of BA + 2.5 mg of PL
[3] = Test II: 20 mg of BA + 10 mg of PL

AUC(0-t) (20 mg, Control: 20 mg of β-boswellic acid (BA) alone): 766 ± 22.8 ng·h/mL
AUC(0-inf) [1]: 772 ± 22.1 ng·h/mL
Cmax [1]: 260 ± 21.3 ng/mL
Tmax [1]: 2 ± 0.18 h
Vd/F [1]: 96 ± 14 L
k el [1]: 0.000131 s⁻¹
AUC(0-inf) [2]: 2660 ± 102 ng·h/mL
Cmax [2]: 321.4 ± 2.7 ng/mL
Tmax [2]: 2 ± 0.22 h
Vd/F [2]: 43.2 ± 7 L
k el [2]: 5.24e-05 s⁻¹
AUC(0-inf) [3]: 2850 ± 251 ng·h/mL
Cmax [3]: 359 ± 12 ng/mL
Tmax [3]: 3 ± 0.26 h
Vd/F [3]: 67.5 ± 11 L
k el [3]: 3.07e-05 s⁻¹
AUC(0-t) (Test I: 20 mg of BA + 2.5 mg of adjuvant (PL)): 1890 ± 109 ng·h/mL
AUC(0-t) (Test II: 20 mg of BA + 10 mg of adjuvant (PL)): 2210 ± 115 ng·h/mL
Ka (oral, Control: 20 mg of BA alone): 0.6168 ± 0.16 h⁻¹
Ka (oral, Test I: 20 mg of BA + 2.5 mg of PL): 0.740 ± 0.22 h⁻¹
Ka (oral, Test II: 20 mg of BA + 10 mg of PL): 0.6112 ± 0.17 h⁻¹
time of complete elimination from serum (oral, β-boswellic acid alone): 9 h
Structure (SMILES): C[C@H]1[C@H](C)CC[C@]2(C)CC[C@]3(C)C(=CC[C@@H]4[C@@]5(C)CC[C@@H](O)[C@](C)(C(=O)O)[C@@H]5CC[C@]43C)[C@H]12 [β-boswellic acid, 3α-hydroxyurs-12-en-24-oic acid]
